Assays:
Type in all cases: cell-based
[1] = test system: N. cinerea; assay: Radial diffusion growth inhibition test according to Lehrer et al.; details: for growth-inhibiting effect: Gram-negative bacteria
Excerpt: (§1) The peptides to which this invention relates are members of the family of natriuretic peptides. […] The form of ANP which occurs in the kidneys, urodilatin, was first isolated in 1988 by Forssmann et al. (Schulz-Knappe et al., 1988). […] A useful test for recognizing antibiotic activity is the growth inhibition test of Lehrer et al. (Lehrer et al. J. Immun. Methods, Vol. 137, p. 167, 1991).
(§2) Radial diffusion growth inhibition test with Streptococcus carnosus and N. cinerea according to Lehrer et al. (Lehrer et al., J. Immun. Methods, Vol. 137, p. 167, 1991).
(§3) The purity and identity of the peptides is determined by mass spectrometry (quadrupole electrospray mass spectrometry, Sciex API 111, Perkin Elmer) and sequencing in a gas-phase sequencer (model 470, Applied Biosystems, Weiter-stadt) and checked by capillary zone electrophoresis. The biological activity is verified by the growth inhibition test.

[2] = test system: Streptococcus carnosus; assay: as above; details: for growth-inhibiting effect: Gram-positive bacteria
Excerpt: as §1, §2, §3

[3] = test system: B. subtilis; assay: Growth inhibition test; details: Gram-positive bacteria
Procedure: as §1, §3

[4] = test system: E. coli; assay: Growth inhibition test; details: Gram-negative bacteria
Procedure: as §1, §3

[5] = test system: M. luteus; assay: Growth inhibition test; details: Gram-positive bacteria
Procedure: as §1, §3

[6] = test system: P. fluorescens; assay: Growth inhibition test; details: Gram-negative bacteria
Procedure: as §1, §3

[7] = test system: S. cerevisiae; assay: Growth inhibition test; details: yeast S. cerevisiae
Procedure: as §1, §3

[8] = after application of 1 μg, Streptococcus carnosus

Compound | growth-inhibiting effect [1] | inhibition halos ([1]; after application of 1 μg) | growth-inhibiting effect ([2]; S. carnosus) | inhibition halos [2, 8] | growth-inhibiting effect [3] | growth-inhibiting effect [4] | growth-inhibiting effect [5] | growth-inhibiting effect [6] | growth-inhibiting effect [7] | inhibition halos ([1]; after application of 11 μg) | inhibition halos ([2]; after application of 7 μg, S. carnosus)
CC[C@H](C)[C@@H]1NC(=O)[C@H](CCCNC(=N)N)NC(=O)[C@H](CC(=O)O)NC(=O)[C@H](CCSC)NC(=O)[C@H](CCCNC(=N)N)NC(=O)CNC(=O)CNC(=O)[C@H](Cc2ccccc2)NC(=O)[C@@H](NC(=O)[C@H](CO)NC(=O)[C@H](CO)NC(=O)[C@H](CCCNC(=N)N)NC(=O)[C@H](CCCNC(=N)N)NC(=O)[C@H](CC(C)C)NC(=O)[C@@H](N)CO)CSSC[C@@H](C(=O)N[C@@H](CC(N)=O)C(=O)N[C@@H](CO)C(=O)N[C@@H](Cc2ccccc2)C(=O)N[C@@H](CCCNC(=N)N)C(=O)N[C@@H](Cc2ccc(O)cc2)C(=O)O)NC(=O)CNC(=O)[C@H](CC(C)C)NC(=O)CNC(=O)[C@H](CO)NC(=O)[C@H](CCC(N)=O)NC(=O)[C@H](C)NC(=O)CNC1=O [ANP] | growth-inhibiting effect | inhibition halos can be observed | growth-inhibiting effect | inhibition halos can be observed | growth-inhibiting effect | growth-inhibiting effect | growth-inhibiting effect | growth-inhibiting effect | growth-inhibiting effect |  | 
Gly-Leu-Ser-Lys-Gly-Cys-Phe-Gly-Leu-Lys-Leu-Asp-Arg-Ile-Gly-Ser-Met-Ser-Gly-Leu-Gly-Cys (GLSKGCFGLKLDRIGSMSGLGC; listed as Homo sapiens) [CNP] |  |  |  |  |  |  |  |  |  | inhibition halos can be observed | inhibition halos can be observed
Thr-Ala-Pro-Arg-Ser-Leu-Arg-Arg-Ser-Ser-Cys-Phe-Gly-Gly-Arg-Met-Asp-Arg-Jle-Gly-Ala-Gln-Ser-Gly-Leu-Gly-Cys-Asn-Ser-Phe-Arg-Tyr [urodilatin] | growth-inhibiting effect | inhibition halos can be observed | growth-inhibiting effect | inhibition halos can be observed | growth-inhibiting effect | growth-inhibiting effect | growth-inhibiting effect | growth-inhibiting effect | growth-inhibiting effect |  | 

From patent US7033997B2, “Use of natriuretic peptides as antibiotically active substances for the treatment of bacterial infections” (Pharis Biotec GmbH, priority 1999, dated 2006)
